According to PubChem BioAssay (NCI):
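96-well plates; 48 h exposure; 5 concentrations. Endpoints by linear interpolation between flanking doses. Not reached: highest tested concentration assigned. TGI denotes the concentration required for complete inhibition of growth.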

What was measured:
Test in all cases: NCI anticancer screen, dose series, 48 h
786-0 renal = test system: 786-0 renal
A549 NSCLC = test system: A549 NSCLC
ACHN renal = test system: ACHN renal
BT-549 breast = test system: BT-549 breast
CAKI-1 renal = test system: CAKI-1 renal
COLO 205 colon = test system: COLO 205 colon
DU-145 prostate = test system: DU-145 prostate
EKVX NSCLC = test system: EKVX NSCLC
HCC-2998 colon = test system: HCC-2998 colon
HCT-116 colon = test system: HCT-116 colon
HCT-15 colon = test system: HCT-15 colon
HL-60(TB) leukemia = test system: HL-60(TB) leukemia
HOP-62 NSCLC = test system: HOP-62 NSCLC
HOP-92 NSCLC = test system: HOP-92 NSCLC
HS 578T breast = test system: HS 578T breast
HT29 colon = test system: HT29 colon
IGROV1 ovarian = test system: IGROV1 ovarian
K-562 leukemia = test system: K-562 leukemia
KM12 colon = test system: KM12 colon
LOX IMVI melanoma = test system: LOX IMVI melanoma
M14 melanoma = test system: M14 melanoma
MALME-3M melanoma = test system: MALME-3M melanoma
MCF7 breast = test system: MCF7 breast
MDA-MB-231 breast = test system: MDA-MB-231 breast
MDA-MB-435 = test system: MDA-MB-435
MDA-N = test system: MDA-N
MOLT-4 leukemia = test system: MOLT-4 leukemia
NCI-H226 lung = test system: NCI-H226 lung
NCI-H23 lung = test system: NCI-H23 lung
NCI-H460 lung = test system: NCI-H460 lung
NCI-H522 lung = test system: NCI-H522 lung
NCI/ADR-RES ovarian = test system: NCI/ADR-RES ovarian
OVCAR-3 ovarian = test system: OVCAR-3 ovarian
OVCAR-4 ovarian = test system: OVCAR-4 ovarian
OVCAR-5 ovarian = test system: OVCAR-5 ovarian
OVCAR-8 ovarian = test system: OVCAR-8 ovarian
PC-3 prostate = test system: PC-3 prostate
RPMI-8226 leukemia = test system: RPMI-8226 leukemia
RXF 393 renal = test system: RXF 393 renal
SF-268 CNS = test system: SF-268 CNS
SF-295 CNS = test system: SF-295 CNS
SF-539 CNS = test system: SF-539 CNS
SK-MEL-2 melanoma = test system: SK-MEL-2 melanoma
SK-MEL-28 melanoma = test system: SK-MEL-28 melanoma
SK-MEL-5 melanoma = test system: SK-MEL-5 melanoma
SK-OV-3 ovarian = test system: SK-OV-3 ovarian
SN12C renal = test system: SN12C renal
SNB-19 CNS = test system: SNB-19 CNS
SNB-75 CNS = test system: SNB-75 CNS
SR leukemia = test system: SR leukemia
SW-620 colon = test system: SW-620 colon
T-47D breast = test system: T-47D breast
TK-10 renal = test system: TK-10 renal
U251 CNS = test system: U251 CNS
UACC-257 melanoma = test system: UACC-257 melanoma
UACC-62 melanoma = test system: UACC-62 melanoma
UO-31 renal = test system: UO-31 renal
A498 renal = test system: A498 renal
CCRF-CEM leukemia = test system: CCRF-CEM leukemia

For O=c1[nH]nc(-c2ccccc2)n1/N=C\CC/C=N\n1c(-c2ccccc2)n[nH]c1=O, the TGI (786-0 renal) was 75.9 µM, the TGI (A549 NSCLC) was > 100 µM and the TGI (ACHN renal) was > 100 µM. For the same molecule, the TGI (BT-549 breast) was 60.9 µM, the TGI (CAKI-1 renal) was > 100 µM and the TGI (COLO 205 colon) was > 100 µM. The TGI (DU-145 prostate) was > 100 µM, the TGI (EKVX NSCLC) was > 100 µM and the TGI (HCC-2998 colon) was > 100 µM. For the same molecule, the TGI (HCT-116 colon) was > 66.7 µM, the TGI (HCT-15 colon) was 49.9 µM and the TGI (HL-60(TB) leukemia) was > 100 µM. For the same molecule, the TGI (HOP-62 NSCLC) was 98.7 µM, the TGI (HOP-92 NSCLC) was 84.6 µM and the TGI (HS 578T breast) was > 83.7 µM. For the same molecule, the TGI (HT29 colon) was 42.5 µM, the TGI (IGROV1 ovarian) was > 85.2 µM and the TGI (K-562 leukemia) was > 100 µM. For the same molecule, the TGI (KM12 colon) was > 100 µM, the TGI (LOX IMVI melanoma) was 27.1 µM and the TGI (M14 melanoma) was 47.1 µM. The TGI (MALME-3M melanoma) was 72.4 µM, the TGI (MCF7 breast) was > 92.2 µM and the TGI (MDA-MB-231 breast) was > 81.4 µM. The TGI (MDA-MB-435) was 60.8 µM, the TGI (MDA-N) was 44.3 µM and the TGI (MOLT-4 leukemia) was > 31.6 µM. The TGI (NCI-H226 lung) was > 72.2 µM, the TGI (NCI-H23 lung) was 21.7 µM and the TGI (NCI-H460 lung) was > 74.5 µM. The TGI (NCI-H522 lung) was > 100 µM, the TGI (NCI/ADR-RES ovarian) was 96.9 µM and the TGI (OVCAR-3 ovarian) was 51.8 µM. For the same molecule, the TGI (OVCAR-4 ovarian) was > 100 µM, the TGI (OVCAR-5 ovarian) was > 100 µM and the TGI (OVCAR-8 ovarian) was > 86.9 µM. For the same molecule, the TGI (PC-3 prostate) was > 77.5 µM, the TGI (RPMI-8226 leukemia) was 99.8 µM and the TGI (RXF 393 renal) was > 100 µM. For the same molecule, the TGI (SF-268 CNS) was > 71 µM, the TGI (SF-295 CNS) was > 100 µM and the TGI (SF-539 CNS) was > 69.5 µM. For the same molecule, the TGI (SK-MEL-2 melanoma) was 50.9 µM, the TGI (SK-MEL-28 melanoma) was > 54.6 µM and the TGI (SK-MEL-5 melanoma) was > 56 µM. For the same molecule, the TGI (SK-OV-3 ovarian) was > 100 µM, the TGI (SN12C renal) was 47 µM and the TGI (SNB-19 CNS) was > 100 µM. The TGI (SNB-75 CNS) was > 100 µM, the TGI (SR leukemia) was > 94.8 µM and the TGI (SW-620 colon) was > 100 µM. For the same molecule, the TGI (T-47D breast) was 99 µM, the TGI (TK-10 renal) was > 100 µM and the TGI (U251 CNS) was > 100 µM. For the same molecule, the TGI (UACC-257 melanoma) was > 100 µM, the TGI (UACC-62 melanoma) was 43.5 µM and the TGI (UO-31 renal) was > 100 µM.

For Nc1ncnc2c1ncc(=O)n2C1CC(O)C(CO)O1 (stereo unspecified), the TGI (786-0 renal) was > 100 µM, the TGI (A498 renal) was > 100 µM and the TGI (A549 NSCLC) was > 100 µM. For the same molecule, the TGI (ACHN renal) was > 100 µM, the TGI (BT-549 breast) was > 100 µM and the TGI (CAKI-1 renal) was > 100 µM. The TGI (CCRF-CEM leukemia) was > 100 µM, the TGI (COLO 205 colon) was > 100 µM and the TGI (DU-145 prostate) was > 100 µM. The TGI (EKVX NSCLC) was > 100 µM, the TGI (HCC-2998 colon) was > 100 µM and the TGI (HCT-116 colon) was > 100 µM. The TGI (HCT-15 colon) was > 100 µM, the TGI (HOP-62 NSCLC) was > 100 µM and the TGI (HOP-92 NSCLC) was > 100 µM. The TGI (HS 578T breast) was > 100 µM, the TGI (HT29 colon) was > 100 µM and the TGI (IGROV1 ovarian) was > 100 µM. The TGI (K-562 leukemia) was > 100 µM, the TGI (KM12 colon) was > 100 µM and the TGI (LOX IMVI melanoma) was > 100 µM. For the same molecule, the TGI (M14 melanoma) was > 100 µM, the TGI (MALME-3M melanoma) was > 100 µM and the TGI (MCF7 breast) was > 100 µM. The TGI (MDA-MB-231 breast) was > 100 µM, the TGI (MDA-MB-435) was > 100 µM and the TGI (MDA-N) was > 100 µM. For the same molecule, the TGI (MOLT-4 leukemia) was > 100 µM, the TGI (NCI-H226 lung) was > 100 µM and the TGI (NCI-H23 lung) was > 100 µM. For the same molecule, the TGI (NCI-H460 lung) was > 100 µM, the TGI (NCI-H522 lung) was > 100 µM and the TGI (NCI/ADR-RES ovarian) was > 100 µM. The TGI (OVCAR-3 ovarian) was > 100 µM, the TGI (OVCAR-4 ovarian) was > 100 µM and the TGI (OVCAR-5 ovarian) was > 100 µM. The TGI (OVCAR-8 ovarian) was > 100 µM, the TGI (PC-3 prostate) was > 100 µM and the TGI (RPMI-8226 leukemia) was > 100 µM. For the same molecule, the TGI (SF-268 CNS) was > 100 µM, the TGI (SF-295 CNS) was > 100 µM and the TGI (SF-539 CNS) was > 100 µM. The TGI (SK-MEL-2 melanoma) was > 100 µM, the TGI (SK-MEL-28 melanoma) was > 100 µM and the TGI (SK-MEL-5 melanoma) was > 100 µM. For the same molecule, the TGI (SK-OV-3 ovarian) was > 100 µM, the TGI (SN12C renal) was > 100 µM and the TGI (SNB-19 CNS) was > 100 µM. The TGI (SNB-75 CNS) was > 100 µM, the TGI (SR leukemia) was > 100 µM and the TGI (SW-620 colon) was > 100 µM. For the same molecule, the TGI (T-47D breast) was > 100 µM, the TGI (TK-10 renal) was > 100 µM and the TGI (U251 CNS) was > 100 µM. For the same molecule, the TGI (UACC-257 melanoma) was > 100 µM, the TGI (UACC-62 melanoma) was > 100 µM and the TGI (UO-31 renal) was > 100 µM.

In the case of O=C(/C=C/c1ccc(O)c(O)c1)OCCCOC(=O)/C=C/c1ccc(O)c(O)c1, the TGI (786-0 renal) is reported as > 100 µM, the TGI (A498 renal) is reported as > 100 µM and the TGI (A549 NSCLC) is reported as > 100 µM. For the same molecule, the TGI (ACHN renal) was > 100 µM, the TGI (BT-549 breast) was > 100 µM and the TGI (CAKI-1 renal) was > 100 µM. The TGI (CCRF-CEM leukemia) was > 100 µM, the TGI (COLO 205 colon) was > 100 µM and the TGI (DU-145 prostate) was > 100 µM. The TGI (EKVX NSCLC) was > 100 µM, the TGI (HCC-2998 colon) was > 100 µM and the TGI (HCT-116 colon) was > 100 µM. The TGI (HCT-15 colon) was > 100 µM, the TGI (HOP-62 NSCLC) was 67.9 µM and the TGI (HOP-92 NSCLC) was 84.4 µM. The TGI (HS 578T breast) was > 100 µM, the TGI (HT29 colon) was > 100 µM and the TGI (IGROV1 ovarian) was > 100 µM. The TGI (K-562 leukemia) was > 100 µM, the TGI (KM12 colon) was > 100 µM and the TGI (LOX IMVI melanoma) was 69.6 µM. The TGI (M14 melanoma) was 65.8 µM, the TGI (MALME-3M melanoma) was > 100 µM and the TGI (MCF7 breast) was > 100 µM. For the same molecule, the TGI (MDA-MB-231 breast) was > 100 µM, the TGI (MDA-MB-435) was > 100 µM and the TGI (MDA-N) was 80.1 µM. For the same molecule, the TGI (MOLT-4 leukemia) was > 100 µM, the TGI (NCI-H23 lung) was 78 µM and the TGI (NCI-H460 lung) was > 100 µM. The TGI (NCI-H522 lung) was 40.6 µM, the TGI (NCI/ADR-RES ovarian) was > 100 µM and the TGI (OVCAR-3 ovarian) was 32.8 µM. For the same molecule, the TGI (OVCAR-4 ovarian) was > 100 µM, the TGI (OVCAR-5 ovarian) was > 100 µM and the TGI (OVCAR-8 ovarian) was > 100 µM. The TGI (PC-3 prostate) was > 100 µM, the TGI (RPMI-8226 leukemia) was > 100 µM and the TGI (RXF 393 renal) was 79.6 µM. For the same molecule, the TGI (SF-268 CNS) was > 100 µM, the TGI (SF-295 CNS) was 53.6 µM and the TGI (SF-539 CNS) was > 100 µM. The TGI (SK-MEL-2 melanoma) was > 100 µM, the TGI (SK-MEL-28 melanoma) was > 100 µM and the TGI (SK-MEL-5 melanoma) was 32.9 µM. For the same molecule, the TGI (SK-OV-3 ovarian) was > 100 µM, the TGI (SN12C renal) was > 100 µM and the TGI (SNB-19 CNS) was > 100 µM. For the same molecule, the TGI (SNB-75 CNS) was > 100 µM, the TGI (SR leukemia) was > 100 µM and the TGI (SW-620 colon) was > 100 µM. For the same molecule, the TGI (T-47D breast) was > 100 µM, the TGI (TK-10 renal) was > 100 µM and the TGI (U251 CNS) was > 100 µM. For the same molecule, the TGI (UACC-257 melanoma) was > 100 µM, the TGI (UACC-62 melanoma) was 49.4 µM and the TGI (UO-31 renal) was > 100 µM.
